In the test the target is T1, Pdp (pyrimidine-nucleoside phosphorylase) (Mycoplasmoides genitalium, UniProt P47297).
T1 sequence (P47297 1-421): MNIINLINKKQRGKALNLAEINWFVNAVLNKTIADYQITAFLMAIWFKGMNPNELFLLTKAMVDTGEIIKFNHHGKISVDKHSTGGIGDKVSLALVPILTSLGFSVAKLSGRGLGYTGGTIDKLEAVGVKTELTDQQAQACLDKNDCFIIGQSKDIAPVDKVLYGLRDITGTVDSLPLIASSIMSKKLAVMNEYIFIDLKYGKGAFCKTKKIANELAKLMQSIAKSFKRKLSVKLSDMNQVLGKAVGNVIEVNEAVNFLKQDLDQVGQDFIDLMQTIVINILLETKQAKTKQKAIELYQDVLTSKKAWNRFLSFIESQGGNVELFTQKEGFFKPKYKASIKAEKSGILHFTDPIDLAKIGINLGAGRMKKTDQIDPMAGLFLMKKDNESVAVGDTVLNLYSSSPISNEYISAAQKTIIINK
In words: uracil production at […] nm after NaOH stop. In kind it is biochemical. The settings on record: 1.25-12.5 mM deoxyuridine; 10 mM phosphate; 10 mM Tris pH 7.3; 1 mM EDTA; 37 C.

As to `O=c1cc[nH]c(=O)[nH]1` [uracil], the “uracil production at 290 nm after NaOH stop” value is given as “We determined uracil production by A290”.

(Values after PMC3856890 (Nature methods, 2013).)
